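In this assay, cells in 96-well plates receive the compound at five concentrations for 48 hours. Endpoints are linearly interpolated between the surrounding concentrations. GI50 is the concentration that inhibits growth by half.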 Activity calls are given as the source filed them. Cut-off read from the data, not from the text of the source: active = GI50 up to about 1.1 µM and inactive = higher. Bounds are passed on as bounds.

Common to all, as to assay: DTP human tumour cell line panel, 48 h
Experiment [1] relates to COLO 205.
Experiment [2] concerns SN12C.
The subject of experiment [3] is A549.
For experiment [4], the system named is SR.
Experiment [5] concerns UO-31.
The subject of experiment [6] is SK-MEL-2.
The test system of experiment [7] is CCRF-CEM.
Experiment [8] deals with SK-MEL-28.
Experiment [9] deals with SW-620.
Experiment [10] concerns HL-60.
Experiment [11] has as its system HCC 2998.
Experiment [12] deals with UACC-62.
The test system of experiment [13] is Malme-3M.
For experiment [14], the system named is HCT-15.
Experiment [15] deals with IGROV-1.
The subject of experiment [16] is HOP-62.
In experiment [17] the test system is A498.
Experiment [18] relates to NCI/ADR-RES.
Experiment [19] relates to MCF7.

For `CC(C)C(NCc1c2ccccc2[n+](C)c2ccccc12)C(=O)O` (stereo not given), the GI50 is 2.34 µM (inactive) in [1]; 5.58 µM (inactive) in experiment [2]; 8.22 µM (inactive) in experiment [3]; 0.748 µM (active) in experiment [4]; 8.07 µM (inactive) in experiment [5]; 6.04 µM (inactive) in [6]. The 50% growth inhibitory concentration (GI50) in [7] was 0.627 µM (active); in [8], 12.9 µM (inactive); in experiment [9], 3.7 µM (inactive); in experiment [10] it was 1.97 µM (inactive); in experiment [11], 14.8 µM (inactive); in experiment [12] it was 3.56 µM (inactive). The GI50 is 6.62 µM (inactive) in experiment [13]; 3.68 µM in experiment [14]; 8.59 µM (inactive) in [15]; 13.8 µM (inactive) in experiment [16]; 7.26 µM (inactive) in [17].

Regarding `O=Cc1cc(O)c(O)c(O)c1-c1c(C=O)cc(O)c(O)c1O`, the GI50 is > 100 µM (inactive) in [1]; > 100 µM (inactive) in [2]; > 100 µM (inactive) in experiment [3]; 82.8 µM (inactive) in [4]; > 100 µM (inactive) in experiment [5]; > 100 µM (inactive) in [6]. Moreover, the GI50 in experiment [7] is 85.7 µM (inactive); in [8] it was > 100 µM (inactive); in [9], > 100 µM (inactive); in experiment [10], > 100 µM (inactive); in [11], > 100 µM (inactive); in experiment [12] it was > 100 µM (inactive). The GI50 is > 100 µM (inactive) in experiment [13]; over 100 µM in experiment [14]; > 100 µM (inactive) in [15]; > 100 µM (inactive) in [16]; > 100 µM (inactive) in [17].

Turning to `C[C@@]1(Br)C[C@@](C)(Cl)[C@@H](Br)CC1/C=C/Cl` (stereo not given in full), the GI50 is 13.1 µM (inactive) in [18]; 15.6 µM (inactive) in experiment [1]; 15 µM (inactive) in [2]; 17.7 µM (inactive) in experiment [3]; 14.1 µM (inactive) in experiment [4]; 18.5 µM (inactive) in [5]. Moreover, the GI50 is 16.7 µM (inactive) in [6]; 11.1 µM (inactive) in [7]; 21.9 µM (inactive) in [8]; 26.9 µM (inactive) in experiment [9]; 31.6 µM (inactive) in experiment [11]; > 10 µM (inactive) in experiment [12]. The GI50 was < 0.01 µM (active) in experiment [13]; 16.6 µM (inactive) in [19]; 27 µM in experiment [14]; 8.15 µM (inactive) in experiment [15]; 17 µM (inactive) in [16].

For the compound `COc1cccc(NC(=O)C(C)(C)C)c1SSc1c(NC(=O)C(C)(C)C)cccc1OC`, the GI50 in experiment [1] is 26.9 µM (inactive); in [2], 24.2 µM (inactive); in [3], 44.9 µM (inactive); in [4], 19.2 µM (inactive); in experiment [5] it was 31.5 µM (inactive); in experiment [6], 48.3 µM (inactive). Also, the GI50 in experiment [7] was 17.1 µM (inactive); in experiment [8], 32.7 µM (inactive); in [9], 18.2 µM (inactive); in experiment [10], 20.3 µM (inactive); in experiment [11], > 69.3 µM (inactive); in [12], 19.3 µM (inactive). The GI50 in experiment [13] is 33.7 µM (inactive); in experiment [14], 20 µM; in [15], > 81.1 µM (inactive); in [16] it was > 100 µM (inactive); in experiment [17], > 100 µM (inactive).

As for `COc1cc2c(cc1OC)[C@@H](Nc1ccc(F)cc1)C1COC(=O)[C@@H]1C2c1cc(OC)c(O)c(OC)c1` (stereo not given in full), the GI50 in experiment [1] was 12.5 µM (inactive); in experiment [2], 1.56 µM (inactive); in [3], 0.0484 µM (active); in [4], 0.0421 µM (active); in experiment [5], 2.14 µM (inactive); in experiment [6], 5.42 µM (inactive). Moreover, the 50% growth inhibitory concentration (GI50) in [7] was 0.14 µM (active); in experiment [8], 21.9 µM (inactive); in [9], 0.512 µM (active); in [10] it was 0.0982 µM (active); in experiment [11], 2.65 µM (inactive); in experiment [12] it was 0.589 µM (active). Moreover, the GI50 in experiment [13] is 3.07 µM (inactive); in [14] it was 1.67 µM; in experiment [15], 21.7 µM (inactive); in [16] it was 0.128 µM (active); in experiment [17], 1.14 µM (inactive).

A word on the GI50: it is the concentration giving 50% growth inhibition.

Source of the values: ChEMBL document CHEMBL1201862, “PubChem BioAssay data set” (2004).
